US20060165744A1, “Combination liposomal formulations” (NeoPharm, Inc, priority 2003, published 2006)

Tests used:
[1] = Percent entrapment of doxorubicin or mitoxantrone in reconstituted LEP (Sephardex G-25 column, UV absorbance); assay type: physicochemical
Experimental: Either doxorubicin (0.5 to 1.5 mg/ml) or mitoxantrone (0.5 to 1.5 mg/ml) was dissolved in deionized water, and these solutions were employed to reconstitute the lyophilized LEP cakes. The drug to lipid ratio varied from 1:120 to 1:24 (wt/wt) for doxorubicin and 1:120 to 1:24 (wt/wt) for mitoxantrone. Following reconstitution, the liposomal preparation was subjected to column chromatography using Sephardex G-25 to separate the free doxorubicin or mitoxantrone from the drug bound to the liposomes. The pre and post column samples were solubilized in methanol and the absorbance values were measured at appropriate wavelengths. The absorbance of doxorubicin (480 nm) and mitoxantrone (660 nm) was measured in the formulations both prior to and after column chromatography, and the percent entrapment was calculated using the following equation: % entrapment=[absorbance of drug after column/absorbance of drug before column]×100

[2] = test system: SKVLB (Vincristine-resistant human ovarian) cells; test: Cytotoxicity by sulforhodamine B assay, SKVLB; assay type: cell-based; conditions: treated 48 hrs, read-out: GI50 values (mM) against drug-resistant cancer cell lines
Experimental: (§1) SKVLB (Vincristine-resistant human ovarian) cells were obtained from Georgetown University and maintained in RPMI 1640 medium containing 10% heat-inactivated FBS, penicillin (100 units/mL) and streptomycin ([…]) with […] Vincristine. P388/ADR (Adriamycin-resistant murine leukemia) cells were purchased from National Cancer Institute (Frederick, Md.) and maintained in RPMI 1640 medium containing 10% heat-inactivated FBS, penicillin (100 units/mL) and streptomycin ([…]). SKVLB cells were cultured in drug-free media for at least a week before studies. The cells (10,000 cells/well for SKVLB and 25,000 cells/well for P388/ADR) were plated in a 96-well plate overnight and treated with doxorubicin, LEP or LEPD for 48 hrs. After incubation, the cytotoxicity was determined by a sulforhodamine B assay.

[3] = test system: P388/ADR (Adriamycin-resistant murine leukemia) cells; test: Cytotoxicity by sulforhodamine B assay, P388/ADR; assay type: cell-based; conditions: Mus musculus, treated 48 hrs, read-out: GI50 values (mM) against drug-resistant cancer cell lines
Experimental: as §1

P388/ADR cells = test: Anti-tumor efficacy on tumor bearing mice (increase in lifespan); assay type: in vivo, CD2F1 female mice; conditions: 1.0 mg/kg DOX, I.V. for five consecutive days
Experimental: After 24 hours, mice were randomly divided into different treatment groups (5 mice/group) and vehicle controls or test article formulations were administered I.V. for five consecutive days. Injection volume was based on individual mouse body w eight. Mice were weighed prior to dosing on Days 1-5. […] Mean survival time (MST) was determined and the percent increase in lifespan (% ILS) was calculated as follows: % ILS=[(100×MST of Treatment Group)/(MST of Control Group)]−100% ILS≧25% is considered as a positive response.

[4] = Effect of mitoxantrone or doxorubicin loading on entrapment of paclitaxel in LEP-ETU; assay type: physicochemical
Experimental: Mitoxantrone or doxorubicin (0.5 to 1.5 mg) was loaded into LEP-ETU.

COc1cccc2c1C(=O)c1c(O)c3c(c(O)c1C2=O)C[C@@](O)(C(=O)CO)C[C@@H]3O[C@H]1C[C@H](N)[C@H](O)[C@H](C)O1 [Doxorubicin (DOX), doxorubicin]
DOX % Entrapment UV 480 nm ([1]; Initial DOX concentration 0.50 mg/mL): 93% | DOX % Entrapment UV 480 nm ([1]; Initial DOX concentration 0.75 mg/mL): 92% | DOX % Entrapment UV 480 nm ([1]; Initial DOX concentration 1.00 mg/mL): 90% | DOX % Entrapment UV 480 nm ([1]; Initial DOX concentration 1.50 mg/mL): 78% | GI50 [2]: 0.016 mM | GI50 [3]: 0.015 mM | % ILS (P388/ADR cells): 18.20%

O=C1c2c(O)ccc(O)c2C(=O)c2c(NCCNCCO)ccc(NCCNCCO)c21 [MTO, mitoxantrone]
MTO % Entrapment UV 660 nm ([1]; Initial MTO concentration 0.50 mg/mL): 97% | MTO % Entrapment UV 660 nm ([1]; Initial MTO concentration 0.75 mg/mL): 99% | MTO % Entrapment UV 660 nm ([1]; Initial MTO concentration 1.00 mg/mL): 100% | MTO % Entrapment UV 660 nm ([1]; Initial MTO concentration 1.50 mg/mL): 101%

CC(=O)O[C@H]1C(=O)[C@@]2(C)[C@H]([C@H](OC(=O)c3ccccc3)[C@]3(O)C[C@H](OC(=O)[C@H](O)[C@@H](NC(=O)c4ccccc4)c4ccccc4)C(C)=C1C3(C)C)[C@]1(OC(C)=O)CO[C@@H]1C[C@@H]2O [Paclitaxel, paclitaxel]
Paclitaxel Entrapment (%) With DOX ([4]; Initial DOX 0.50 mg/mL): 102% | Paclitaxel Entrapment (%) With DOX ([4]; Initial DOX 0.75 mg/mL): 102% | Paclitaxel Entrapment (%) With DOX ([4]; Initial DOX 1.00 mg/mL): 102% | Paclitaxel Entrapment (%) With DOX ([4]; Initial DOX 1.50 mg/mL): 109%
